{"source": "patent US9957236B2", "about": "“Selective inhibitors interfering with fibroblast growth factor receptor and FRS2 interaction for the prevention and treatment of cancer and other diseases” (LIMITED LIABILITY COMPANY “RUSSIAN PHARMACEUTICAL …, priority 2014, dated 2018)", "key": {"[1]": {"system": "HS578T breast cancer cells", "experiment": "Crystal Violet proliferation assay, HS578T", "type": "cell-based", "conditions": "low FGFR2 expression, bFGF 100 ng/ml, 7 days", "excerpt": "(§1) This research used additional cell lines: SKOV3 (ovarian cancer, ATCC # HTB-77), HS578T (breast cancer, ATCC # HTB-126), T47D (breast cancer, ATCC #HTB-1336), modified line of non-small cells lung cancer A549, line of metastatic melanoma of skin Mel Kor (RF Patent No. 2287578), and additional study of antiangiogenic activity—cell line SVEC-4-10 (endothelial cells, ATCC #CRL-2181).\n(§2) The cells were cultivated in environment RPMI-1640 (PANECO) (SKOV3, HS578T, T47D, Mel-Kor) or DMEM (PANECO) (SVEC-4-10) containing 10% of embryonal serum cattle (FCS, HyClone), 2 mM glutamine (PANECO), antibiotics (100 IU/mL penicillin and […] streptomycin (all PANECO)) at 37° C. and 5% CO2. Cells at 70-80% monolayer were used for the experiments.\n(§3) The cells were planted in low density (30 t of cells/ml) in triplets on a 96-cavity plate in an environment containing 0.1% of FCS serum. […] Growth of cells was determined by the modified “Crystal Violet mitogenic method” for 7 days after the experiment start. […] The dye was dissolved in ethanol and measured on a spectrophotometer at 540-560 nm. The curve of cell proliferative activity inhibition was built by the dependence of the percent of the cell quantity (Y axis) on concentration of inhibitor RPT835 in the cavity of the plate (X axis). […]"}, "[2]": {"system": "SVEC-4-10 endothelial cells", "experiment": "Crystal Violet proliferation assay, SVEC-4-10", "type": "cell-based", "conditions": "SVEC-4-10, strongly expresses FGFR2; bFGF 100 ng/ml, 7 days", "excerpt": "as §1, §2, §3"}, "FRS2α": {"molecular_target": "T1, FRS2α (Homo sapiens, UniProt Q8WU20)", "T1 sequence (Q8WU20 1-508)": "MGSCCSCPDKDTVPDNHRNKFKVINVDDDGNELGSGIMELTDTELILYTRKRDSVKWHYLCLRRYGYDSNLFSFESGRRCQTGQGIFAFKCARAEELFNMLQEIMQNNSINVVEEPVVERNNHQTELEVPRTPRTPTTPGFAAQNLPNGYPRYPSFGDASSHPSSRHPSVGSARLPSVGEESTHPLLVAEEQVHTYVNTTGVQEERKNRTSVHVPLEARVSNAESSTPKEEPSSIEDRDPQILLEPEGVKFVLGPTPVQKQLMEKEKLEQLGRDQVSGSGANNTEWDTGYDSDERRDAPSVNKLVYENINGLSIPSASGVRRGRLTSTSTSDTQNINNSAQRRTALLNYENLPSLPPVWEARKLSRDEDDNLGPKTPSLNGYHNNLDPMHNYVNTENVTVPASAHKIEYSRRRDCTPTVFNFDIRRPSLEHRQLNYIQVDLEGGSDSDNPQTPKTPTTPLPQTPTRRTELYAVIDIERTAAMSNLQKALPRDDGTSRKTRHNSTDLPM", "experiment": "FRS2α phosphorylation in hFOB cells (Western blotting)", "type": "cell-based", "design": "endogenous in cells; host or cells: hFOB", "conditions": "hFOB (FGFR2 IIIc), RPT835 1 micron, FGF-1 100 ng/ml", "description": "The research assessed the influence of inhibitor RPT835 determined by formula II of this invention, intervention with interaction of FGFR2 represented by two most frequent isoforms IIIb and IIIc with FRS2. For this, human cell line of embryonal osteoblasts (hFOB) expressing only FGFR2 […], and human cell line of breast cancer SUM-52 expressing FGFR2 IIIb (all main versions of isoform—C1, C2, C3) were chosen.\nCells were divided into the groups: • 1a) hFOB • 1b) hFOB, stimulating FGF-1 (100 ng/ml) • 1c) hFOB, cultivation with RPT835 (1 micron) and stimulation of FGF-1 (100 ng/ml) • 2a) SUM-52 • 2b) SUM-52, stimulation of FGF-1 (100 ng/ml) • 2c) SUM-52, cultivation with RPT835 (1 micron) and stimulation of FGF-1 (100 ng/ml)"}, "intracellular kinases": {"system": "intracellular kinases", "experiment": "Intracellular kinases phosphorylation in breast cancer cells MDA MB 134", "type": "cell-based", "conditions": "MDA MB 134 cells", "excerpt": "The purpose of this research was assessment of specific action of inhibitor RPT835 specified in this invention with formula II, on interaction of […] and FRS2 and assessment of influence on interaction of other types of FGFR and FRS2. For the experiment, 2 cell lines were selected: • stomach cancer KATO III, expressing FGFR2, and • breast cancer MDA MB 134, expressing FGFR1.\nThe research procedure was the same as in the previous examples: the cells were cultivated in presence of RPT835 followed by stimulation with FGF-2 and heparin. The other part of the cells was cultivated in presence of RPT835. Phosphorylation of FGFR1 (in breast cancer cells) and FGFR2 (in stomach cancer cells), and also FRS2a (in the both cell lines) and some intracellular kinases (in breast cancer cells) was assessed using manual and automated Western blotting."}, "[3]": {"conditions": "in vivo", "excerpt": "Besides, acute toxicity of inhibitor RPT835 was studied in the following volume in a separate research: • Acute toxicity of the medicine was researched. […] The state of the animals after acute administration testifies of good tolerability of the medicine in doses exceeding the maximal therapeutic ones (about 4.3 mcg/kg) tens—hundreds of times. […]"}, "HUVEC": {"system": "HUVEC", "experiment": "Proliferation of endothelial cells HUVEC with FGF-2", "type": "cell-based", "conditions": "Homo sapiens, FGF-2 25 ng/ml, 96 hours, read-out: Cell growth suppression, IC50", "description": "Endothelial cells HUVEC were sawn in 96-cavity plates and cultivate for 24 hours. After that, the following was added to the cells: • 1) inhibitor RPT835, or • 2) inhibitor described by Formula IX in this invention, or • 3) brivanib—multi-kinase inhibitor of FGFR/VEGFR, and also to all cells—FGF-2 in a concentration of 25 ng/ml.\nThe cells were cultivated for 96 hours in general and then were calculated."}}}
{"smiles": "Cc1cc([N+](=O)[O-])c(NS(=O)(=O)c2cccc(C(=O)O)c2)cc1-c1cccnc1", "note": "[RPT835, 3-(N-(4-methyl-2-nitro-5-(pyridin-3-yl)phenyl)sulfamoyl)benzoic acid]", "values": [{"measurement": "inhibition of proliferative activity", "setting": "[1]", "value": "moderate effect"}, {"measurement": "inhibition of proliferative activity", "setting": "[2]", "value": "maximum inhibiting effect"}, {"measurement": "FRS2α phosphorylation level", "setting": "FRS2α", "value": "completely suppressed the phosphorylation"}, {"measurement": "phosphorylation of intracellular kinases", "setting": "intracellular kinases", "value": "did not have influence"}, {"measurement": "irritating effect on the mucous membrane of the gastrointestinal tract", "setting": "[3]", "value": "does not have an irritating effect"}, {"measurement": "IC50", "setting": "HUVEC", "value": 11, "unit": "nM"}]}
